Here are results for three molecules from patent publication US9447069B2, “ROR modulators and their uses” (INNOV17 LLC, priority 2012, dated 2016).

For one series, the system named is TH17 cells. The series is described as follows: TH17 cellular proliferation (Prestoblue). The format is cell-based. Particulars: Homo sapiens, 120 h; 3 μM compound, after 5 day TH17 differentiation, relative to DMSO treated TH17 cells; read-out: % change in TH17 cell number. As for the experimental part:
(§1) Peripheral blood mononuclear cells (PBMCs) were sourced from freshly prepared leukocyte enriched plasma (buffy coat) from healthy volunteers from which PBMCs were isolated by density gradient centrifugation using Ficoll-Paque™ PLUS (GE Healthcare). Naïve CD4+ T cells were isolated using the Naïve CD4+ T cell Isolation Kit II (Miltenyi Biotec) as per manufacturer's instructions. CD4+ T cells were plated at 5×10^4 cells/well in 96 well plates pre-coated with immobilized human (h)-αCD3 antibody (eBioscience) then differentiated to TH17 cells using h-αCD28, h-αIFN-γ, h-αIL-4, h-IL-6, h-IL-23, h-IL-1β, h-TGF-β1 (eBioscience) and maintained in a cell culture incubator at 37° C. with 5% CO2 in TexMACS Medium (Miltenyi Biotec) supplemented with 1% Penicillin/Streptomycin (Lonza) over 5 days.
Cellular proliferation was assessed in the presence or absence of 3 μM compound using Prestoblue® Cell Viability Reagent (Life Technologies) as per manufacturer's instructions using absorbance as the output measured by a microplate reader (Perkin Elmer) after 30 minutes of incubation. A standard curve developed by plotting varying cell numbers versus absorbance was used to assess differences in cellular proliferation between compound treated or untreated cells after the 5 day TH17 differentiation period.

A further series concerns IL-17AF. Kind of series: TH17 cytokine inhibition measured by ELISA (IL-17AF). The format is cell-based. Particulars: 120 h; human TH17 cells, 5 days differentiation, ELISA of supernatants, 0.1% DMSO. As for the experimental part:
as §1
(§2) Human CD4+ T cells were differentiated to TH17 cells as described in the presence or absence of various concentrations of compounds in a final concentration of 0.1% DMSO in TexMACS medium. Supernatants were collected and stored at −20° C. until they were to be assayed for IL-17A, IL-17F, IL-17AF, IL-21 and/or IL-22 levels as determined by Ready-Set-Go ELISA kits (eBioscience) as per manufacturer's instructions. Endpoint absorbance was read at 450 nm and 570 nm according to manufacturer's instructions (eBioscience) using a microplate reader (Perkin Elmer). The percentage of cytokine inhibition was calculated with reference to DMSO treated cells and the IC50s were determined by GraphPad Prism software and presented in the table below.
In general terms: An ELISA detects its analyte on a solid surface through an enzyme-linked reagent.

A further series relates to IL-17F. The series is described as follows: TH17 cytokine inhibition measured by ELISA (IL-17F). Particulars: 120 h; human TH17 cells, 5 days differentiation, ELISA of supernatants, 0.1% DMSO. The format is cell-based. As for the experimental part:
as §1, §2

Another series relates to IL-22. Kind of series: TH17 cytokine inhibition measured by ELISA (IL-22). Particulars: 120 h; human TH17 cells, 5 days differentiation, ELISA of supernatants, 0.1% DMSO. The format is cell-based. As for the experimental part: as §1, §2
The next series deals with IL-17A. Kind of series: TH17 cytokine inhibition measured by ELISA (IL-17A). The format is cell-based. Particulars: 120 h; human TH17 cells, 5 days differentiation, ELISA of supernatants, 0.1% DMSO. As for the experimental part: as §1, §2
In series [1] the target is T1, RORα LBD (Homo sapiens, UniProt P35398).
T1 construct: purified GST-tagged (i) RORγ LBD or (ii) RORα LBD; purchased Life Technologies
T1 sequence (P35398 272-510 limits assumed): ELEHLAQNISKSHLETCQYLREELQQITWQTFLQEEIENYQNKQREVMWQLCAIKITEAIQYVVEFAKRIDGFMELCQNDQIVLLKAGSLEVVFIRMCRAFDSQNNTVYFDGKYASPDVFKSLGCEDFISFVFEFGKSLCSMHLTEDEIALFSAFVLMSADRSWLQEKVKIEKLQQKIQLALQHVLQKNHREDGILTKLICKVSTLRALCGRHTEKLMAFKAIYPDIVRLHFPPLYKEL
Kind of series: TR-FRET NCoR1-D2 co-repressor recruitment to RORα LBD. The format is biochemical. The text has this:
(§3) The Time-Resolved Fluorescence Resonance Energy Transfer (TR-FRET) assay kit (Life Technologies) was used to measure compound efficacy to disrupt or enhance ligand-mediated interaction of the co-activator and co-repressor peptides with the purified GST-tagged (i) RORγ LBD or (ii) RORα LBD. The RORγ LBD and RORα LBD each have a basal level of interaction with the co-activator D22 or co-repressor NCoR1-D2 in the absence of ligand, thus it is possible to identify compounds that inhibit or induce RORγ and/or RORα co-activator/co-repressor interactions, thus determining RORα, RORγ, or RORα/RORγ compound selectivity. The assay was performed as per manufacturer's instructions and TR-FRET was assessed 2 and 20 hours post-assay initiation. Compounds were identified to (i) have no impact on either co-activator displacement or […] from the assessed LBD (ii) promote co-activator displacement from the assessed LBD (iii) promote co-repressor recruitment to the assessed LBD or (iv) concurrently promote co-activator displacement from the assessed LBD and co-repressor recruitment to the assessed LBD.

Series [2] concerns the target T2, RORγ LBD (Homo sapiens, UniProt P51449).
T2 sequence (P51449 269-508 limits assumed): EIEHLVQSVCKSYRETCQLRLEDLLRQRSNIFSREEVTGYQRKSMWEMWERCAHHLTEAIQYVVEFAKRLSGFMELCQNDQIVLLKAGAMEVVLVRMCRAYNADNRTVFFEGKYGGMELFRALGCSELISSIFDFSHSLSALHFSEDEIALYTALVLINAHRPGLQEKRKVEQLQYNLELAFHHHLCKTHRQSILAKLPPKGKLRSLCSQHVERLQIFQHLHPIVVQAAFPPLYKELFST
The series is described as follows: TR-FRET NCoR1-D2 co-repressor recruitment to RORγ LBD. The format is biochemical. Details: purified GST-tagged (i) RORγ LBD or (ii) RORα LBD; purchased Life Technologies.
Text: as §3
Background: Time-resolved FRET reads energy transfer from a long-lived donor to a nearby acceptor.

Series [3] deals with T2, RORγ LBD. The series is described as follows: TR-FRET D22 co-activator displacement from RORγ LBD. The format is biochemical. Further details: purified GST-tagged (i) RORγ LBD or (ii) RORα LBD; purchased Life Technologies.
Text: as §3

Series [4] concerns the target T1, RORα LBD. Kind of series: TR-FRET D22 co-activator displacement from RORα LBD. The format is biochemical.
Text: as §3

Another series concerns IL-21. The series is described as follows: TH17 cytokine inhibition measured by ELISA (IL-21). The format is cell-based. Particulars: 120 h; human TH17 cells, 5 days differentiation, ELISA of supernatants, 0.1% DMSO. As for the experimental part:
as §1, §2

A short description of series [5]: TH17 cell viability (Prestoblue). Particulars: human; 1 μM compound, after 5 days, percentage of DMSO treated cells. The format is cell-based. As for the experimental part: as §1
Cells were assayed for viability in the presence or absence of 1 μM compound using Prestoblue® Cell Viability Reagent (Life Technologies) as per manufacturer's instructions after 30 minutes incubation of TH17 cells with reagent. Absorbance was measured at 570 nm and 600 nm using a microplate reader (Perkin Elmer) and data were analyzed as per manufacturer's instructions. Cell viability was determined after 5 days and expressed as a percentage of DMSO treated cells.

Where [6] appears, read: TR-FRET assessed 2 hr post-assay initiation, read-out: RORα EC50 NCoR1-D2 co-repressor recruitment, 2 hr.
The mark [7] stands for this setting: TR-FRET assessed 20 hr post-assay initiation, read-out: RORα EC50 NCoR1-D2 co-repressor recruitment, 20 hr.
The mark [8] stands for this setting: TR-FRET assessed 2 hr post-assay initiation, read-out: RORγ EC50 NCoR1-D2 co-repressor recruitment, 2 hr.
Setting [9] is: TR-FRET assessed 20 hr post-assay initiation, read-out: RORγ EC50 NCoR1-D2 co-repressor recruitment, 20 hr.
[10] abbreviates: TR-FRET assessed 2 hr post-assay initiation, read-out: RORγ EC50 D22 co-activator displacement, 2 hr.
The mark [11] stands for this setting: TR-FRET assessed 20 hr post-assay initiation, read-out: RORγ EC50 D22 co-activator displacement, 20 hr.
Setting [12] is: TR-FRET assessed 2 hr post-assay initiation, read-out: RORα EC50 D22 co-activator displacement, 2 hr.
Where [13] appears, read: TR-FRET assessed 20 hr post-assay initiation, read-out: RORα EC50 D22 co-activator displacement, 20 hr.

pEC50, pIC50: −log10 of the molar value. A value given as a limit tells only on which side of the number the result lay.

The pIC50 is the IC50 on a negative log10 scale, so that one unit is a factor of ten. Low values mean a high IC50, high ones a low IC50. One may read the melting point as the temperature of the solid-liquid transition. The term pEC50 denotes −log10 of the EC50, conventionally taken in molar units. By viability is commonly meant the share of living cells, or the viability signal relative to a control. High values mean less harm to the cells, low ones more harm to the cells. Molecule `OC(c1ccc(CN2CCc3cc(-c4cn[nH]c4)ccc32)cc1)(C(F)(F)F)C(F)(F)F` [Example 8, 2-(4-((5-(1H-pyrazol-4-yl)indolin-1-yl)methyl)phenyl)-1,1,1,3,3,3-hexafluoropropan-2-ol] showed a melting point of 191 to 195 °C. Moreover, the inhibition at 3 µM with TH17 cells is more than 50%. Besides, in the series on IL-17AF, the pIC50 is more than 5.00. Moreover, the pIC50 with IL-17F is more than 5.00. Also, the negative logarithm of the IC50 (pIC50) in the series on IL-22 was more than 5.00. This molecule had a pIC50 in the series with IL-17A of more than 5.00. Moreover, on RORα LBD [1] (setting [6]), the pEC50 is more than 4.52. On RORα LBD [1] (setting [7]), the pEC50 was less than 4.52. The pEC50 on RORγ LBD [2] (setting [8]) is more than 4.52. Further, the negative-log EC50 (pEC50) on RORγ LBD [2] (setting [9]) is less than 4.52. On RORγ LBD [3] (setting [10]), the pEC50 was more than 4.52. Besides, the pEC50 on RORγ LBD [3] (setting [11]) is more than 4.52. Further, the pEC50 at RORα LBD [4] (setting [12]) is less than 4.52. In addition, the negative logarithm of the EC50 (pEC50) at RORα LBD [4] (setting [13]) is more than 4.52. In addition, the pIC50 with IL-21 is more than 5.00. Moreover, the viability at 5 days, 1 µM in series [5] is more than 80%.

On to `Cc1cc(-c2ccc3c(c2)CCN3Cc2ccc(C(O)(C(F)(F)F)C(F)(F)F)cc2)[nH]n1` [Example 7, 1,1,1,3,3,3-hexafluoro-2-(4-((5-(3-methyl-1H-pyrazol-5-yl)indolin-1-yl)methyl)phenyl)propan-2-ol], for which, in the series with TH17 cells, the inhibition at 3 µM is more than 50%. Besides, the pIC50 in the series with IL-17AF, with IL-17F, in the series on IL-22, in the series on IL-17A and with IL-21 was more than 5.00 throughout. Further, the pEC50 is less than 4.52 at RORα LBD [1] (setting [6]); more than 4.52 at RORα LBD [1] (setting [7]); more than 4.52 on RORγ LBD [2] (setting [8]); more than 4.52 on RORγ LBD [2] (setting [9]); more than 4.52 on RORγ LBD [3] (setting [10]); more than 4.52 at RORγ LBD [3] (setting [11]). Also, the pEC50 on RORα LBD [4] (setting [12]) and on RORα LBD [4] (setting [13]) was more than 4.52 in each case. This molecule yielded a viability at 5 days, 1 µM in [5] of more than 80%.

On to `Cc1nnc(-c2ccc3c(c2)CCN3Cc2ccc(C(O)(C(F)(F)F)C(F)(F)F)cc2)o1` [Example 9, 1,1,1,3,3,3-hexafluoro-2-(4-((5-(5-methyl-1,3,4-oxadiazol-2-yl)indolin-1-yl)methyl)phenyl)propan-2-ol], for which the inhibition at 3 µM with TH17 cells was more than 50%. For the same molecule, the pIC50 was less than 5.00 in the series on IL-17AF; more than 5.00 in the series with IL-17F; more than 5.00 in the series with IL-22; more than 5.00 in the series with IL-17A; more than 5.00 in the series on IL-21. For the same molecule, the pEC50 was less than 4.52 on RORα LBD [1] (setting [6]); more than 4.52 on RORα LBD [1] (setting [7]); more than 4.52 on RORγ LBD [2] (setting [8]); less than 4.52 at RORγ LBD [2] (setting [9]); less than 4.52 on RORγ LBD [3] (setting [10]); less than 4.52 on RORγ LBD [3] (setting [11]). Moreover, the pEC50 on RORα LBD [4] (setting [12]) was less than 4.52; at RORα LBD [4] (setting [13]), more than 4.52. In addition, the viability at 5 days, 1 µM in [5] is more than 80%.
